In patent EP2149554A1, “Indolyamides as modulators for an EP2 receptor” (Bayer Schering Pharma Aktiengesellschaft, priority 2008, dated 2010):
pIC50: −log10 of the molar value.

Columns and labels:
Kumulus-Eizell Komplexe = test: cumulus expansion test in vitro; type: cell-based, Mäusen (Stamm : CD1 (ICR)); details: competing with PGE2
From the text: Im prä-ovulatorischen antralen Follikel ist die Eizelle von Kumulus Zellen umgeben, die einen dichten Zellkranz um die Eizelle bilden. Nach dem LH-Peak (Lutenisierendes Hormon) wird eine Reihe von Prozessen aktiviert, die eine starke morphologische Veränderung dieses Zellkranzes aus Kumulus Zellen zur Folge hat. Hierbei bilden die Kumulus Zellen eine extrazelluläre Matrix, die zur sogenannten Kumulus Expansion führt (Vanderhyden et al. Dev Biol. 1990 Aug;140(2):307-317). Diese Kumulus Expansion ist ein wichtiger Bestandteil des ovulatorischen Prozesses und der nachfolgenden Möglichkeit zur Fertilisation. Bei der Kumulus Expansion sind Prostaglandine und hier das Prostaglandin E2, dessen Synthese durch den LH-Peak induziert wird, von entscheidender Bedeutung. Prostanoid EP2 Knock-out Mäuse (Hizaki et al. Proc Natl Acad Sci U S A. 1999 Aug 31 ;96(18):10501-6.) zeigen eine deutlich verminderte Kumulus Expansion und starke Subfertilität, was die Bedeutung des Prostanoid EP2-Rezeptors für diesen Prozess demonstriert.
2.2. Kumulus Expansions Test in vitro
In immaturen weiblichen Mäusen (Stamm : CD1 (ICR) von Charles River) wurde in einem Alter von 14 - 18 Tagen die Follikulogenese durch eine einmalige Gabe (intraperitoneal) von 10 I.E. PMSG (Pregnant Mare Serum Gonadotropine; Sigma G-4877, Lot 68H0909) induziert. […]

[1] = target: T1, EP2-Subtyp des humanen PGE2-Rezeptors (Homo sapiens, UniProt P43116); test: cAMP antagonism test (HTRF cAMP detection, in presence of PGE2); type: cell-based; details: cAMP Antagonismustest; PGE2 as agonist; read-out: Antagonismus [IC50
T1 construct: host or cells: cells in a culture plate
From the text: 1. Nachweis des Antagonismus des humanen Prostaglandin E2 (Subtyp EP2) Rezeptorsignals
(§1) Die Bindung von PGE2 an den EP2-Subtyp des humanen PGE2-Rezeptors induziert die Aktivierung membranständiger Adenylatzyklasen und führt zur Bildung von cAMP. In Gegenwart des Phosphodiesteraseinhibitors IBMX wird das durch diese Stimulation akkumulierte und mittels Zell-Lyse freigesetzte cAMP in einem kompetitiven Nachweisverfahren eingesetzt. In diesem Test konkurriert das cAMP im Lysat mit cAMP-XL665 um die Bindung eines Eu-Kryptat markierten Anti-cAMP Antikörpers.
(§2) Dabei entsteht in Abwesenheit von zellulärem cAMP ein maximales Signal, welches auf der Kopplung dieses Antikörpers an das cAMP-XL665 Molekül beruht. Dadurch entsteht nach Anregung bei 337 nm ein auf FRET (fluorescence resonance energy transfer) basierendes, langanhaltendes Emissionssignal bei 665 nm (und bei 620 nm). Beide Signale werden in einem geeigneten Messgerät zeitlich versetzt, d.h. nach Abklingen der Hintergrundsfluoreszenz gemessen. Jegliche Erhöhung des durch Prostglandin-E2-Gabe bedingten niedrigen FRET-Signals (gemessen als Well-Ratio-Veränderung = Emission665nm/Emission620nm * 10000) zeigt die Wirkung von Antagonisten.
1.2.1. Test auf Antagonismus (Angaben pro Vertiefung einer 384-Loch-Platte):
Die in einer Testplatte und 30 % DMSO vorgelegten Substanzlösungen (0.75 µl) wurden in 16 µl einer KRSB+IBMX-Stimulationslösung gelöst (1 X Krebs-Ringer Bicarbonate Buffer; Sigma-Aldrich # K-4002; inklusive 750 µM 3-Isobutyl-1-methylxanthine Sigma-Aldrich # I-7018), anschließend wurden 15 µl davon in eine medienfreie Zellkulturplatte überführt, die kurz zuvor mit KRSB gewaschen worden war.
Nach einer 30-minütigen Vorinkubation bei Raumtemperatur (RT) wurden 5 µl einer 4xPGE2 Lösung (11 nM) zugegeben und in Gegenwart des Agonisten für weitere 60 min bei RT inkubiert (Volumen: ∼ 20 µl), bevor die Reaktion anschließend durch Zugabe von 5 µl Lysispuffer gestoppt und für weitere 20 min bei RT inkubiert wird (Volumen: ∼ 25 µl). Das Zell-Lysat wurde anschließend in eine Messplatte überführt und entsprechend den Herstellerangaben (cyclic AMP kit Cisbio International # 62AMPPEC) gemessen.

[2] = target: T1, EP2-Subtyp des humanen PGE2-Rezeptors; test: cellular agonism test (HTRF cAMP detection, without PGE2); type: cell-based
From the text: as §1, §2
1.2.2. Test auf Agonismus (Angaben pro Vertiefung einer 384-Loch-Platte): […]

T1 sequence (P43116 whole entry): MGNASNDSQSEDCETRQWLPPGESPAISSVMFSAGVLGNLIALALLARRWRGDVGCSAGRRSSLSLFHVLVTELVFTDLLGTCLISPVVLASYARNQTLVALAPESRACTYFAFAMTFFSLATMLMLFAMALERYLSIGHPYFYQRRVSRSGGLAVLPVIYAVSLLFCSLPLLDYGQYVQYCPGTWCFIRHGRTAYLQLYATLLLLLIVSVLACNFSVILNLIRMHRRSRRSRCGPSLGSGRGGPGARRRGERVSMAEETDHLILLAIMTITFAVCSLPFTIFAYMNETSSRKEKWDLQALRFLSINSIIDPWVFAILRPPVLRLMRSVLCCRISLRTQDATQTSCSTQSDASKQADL

| SMILES | Unterdrückung der Kumulus Expansion (Kumulus-Eizell Komplexe; 100 - 200 µM) | pIC50 [1] | Unterdrückung der Kumulus Expansion (Kumulus-Eizell Komplexe; 5 µM) | Wirkung im zellulären Agonismustest [2] |
| --- | --- | --- | --- | --- |
| CC(C)Oc1ccc2c(=O)c3cc(C(=O)O)ccc3oc2c1 [AH 6809, reference compound] | ca. 30% |  |  |  |
| Cc1[nH]c2c(F)ccc(C)c2c1CCNC(=O)c1cc2cc(C(=O)NCCC(N)=O)ccc2[nH]1 [Beispiel 5, 1H-Indol-2,5-dicarbonsäure 5-[(2-carbamoyl-ethyl)-amid] 2-{[2-(7-fluor-2,4-dimethyl-1H-indol-3-yl)-ethyl]-amid}] |  | 6.53 |  |  |
| Cc1[nH]c2c(F)ccc(C)c2c1CCNC(=O)c1cc2ccc(C(=O)NCC(N)=O)cc2[nH]1 [Beispiel 6, 1H-Indol-2,6-dicarbonsäure 6-carbamoylmethyl-amid 2-{[2-(7-fluor-2,4-dimethyl-1H-indol-3-yl)-ethyl]-amid}] |  | 7.66 | ca. 67% | keine Inhibition |
| Cc1[nH]c2c(F)ccc(C)c2c1CCNC(=O)c1cc2ccc(C(=O)NCC(C)(C)CO)cc2[nH]1 [Beispiel 8, 1H-Indol-2,6-dicarbonsäure 2-{[2-(7-fluor-2,4-dimethyl-1H-indol-3-yl)-ethyl]-amid} 6-[(3-hydroxy-2,2-dimethyl-propyl)-amid]] |  | 6.91 |  |  |
| Cc1[nH]c2c(F)ccc(C)c2c1CCNC(=O)c1cc2ccc(C(=O)NCCC(N)=O)cc2[nH]1 [Beispiel 10, 1H-Indol-2,6-dicarbonsäure 6-[(2-carbamoyl-ethyl)-amid] 2-{[2-(7-fluor-2,4-dimethyl-1H-indol-3-yl)-ethyl]-amid}] |  | 7.34 |  |  |
